Data set [1] is described as follows: Naloxone-precipitated withdrawal after i.c.v. treatment (jumping, shaking, chewing, weight loss). The note with it: naloxone 3 mg/kg i.p.; for withdrawal behaviours after naloxone: 20-min period; for withdrawal symptoms after naloxone (jumping, shaking, chewing, weight loss): i.c.v. twice daily for 5 days, morphine 50 nmoles, DAMGO 1.0 nmole. The procedure: On day 7, rats were injected intraperitoneally with 3 mg/kg naloxone and placed, individually, in Plexiglass cylinders. The rats were monitored for jumping, shaking, and chewing, and the number of occurrences of each type of behavior over a 20-min period was recorded immediately following the naloxone injection. In addition, the rats were weighed before naloxone injection and after the 20 mins of monitoring indicated above.
On day 5, 30 mins following the second drug administration, rats were injected intraperitoneally with 3 mg/kg naloxone and placed, individually, in Plexiglass cylinders. The rats were monitored for jumping, shaking, and chewing, and the number of occurrences of each type of behavior over a 20-min period was recorded immediately following the naloxone injection. In addition, the rats were weighed before naloxone injection and following the 20-min observation period indicated above.

A short description of data set [2]: Radiant heat tail-flick antinociception, intrathecal (IT) catheter. It counts as in vivo, rat. An excerpt:
Animals. Male Sprague-Dawley rats (250-300 g, Simonsen Laboratories, Inc. Gilroy, Calif.) were housed individually in temperature-controlled rooms with a 12-hr light/dark cycle. Food and water were available ad libitum. All procedures used in this study were in agreement with the NIH Guide for the Care and Use of Laboratory Animals and were approved by the Animal Care and Use Committee at Gallo Center of the University of California, San Francisco.
Preparation and implantation of intrathecal (IT) catheters. […] Two types of catheters were prepared depending on the regimen for test drug delivery. […] For catheter implantation, rats were anesthetized with isoflurane and placed on a stereotaxic device with the head flexed forward. The PE-10 catheter was inserted into the spinal subarachnoid space through an incision in the atlanto-occipital membrane and advanced caudally extending to the lumbar enlargement of the spinal cord. After implantation of IT catheters, rats were returned to their home cages and allowed 7 days to recover from surgery.
Drug treatments. […] The test drug was delivered via either single injection or chronic infusion. […] DAMGO or saline was injected through one arm of the Y-shape catheter at 15 μl volume.
Antinociception test. Rats were tested for antinociception using the radiant heat tail-flick procedure. The light intensity was adjusted to achieve base-line latencies of 1.5 to 2 seconds; a maximum latency of 6 seconds was set as the cut-off time to minimize damage to the tail. […] Antinociception was tested by tail-flick 30 min after the afternoon administration. The behavioral data of antinociception were compared and statistically analyzed by two-way analysis of variance followed by Bonferroni post-test, where P<0.05 was considered significant.
(§1) Rats (4-6 per group) were implanted with an intrathecal catheter through which either an acute injection of agonist could be given or chronic drug could be administered by an osmotic mini pump.
Rats were implanted with a Y-shaped intrathecal catheter. […] Either a sub-analgesic, sub-endocytic dose of DAMGO (0.01 nmoles in 15 μl) or an equal volume of saline was administered twice daily through the other arm of the catheter. […] Analgesia was measured by tail flick latency test once per day 30 minutes following the second injection.

Data set [3] can be described thus: Tail-flick antinociception and tolerance, intracerebroventricular (i.c.v.) cannula. It counts as in vivo, rat. An excerpt: Intracerebroventricular (i.c.v.) cannula implantation. Rats were anesthetized with halothane and placed in a stereotaxic head holder. The scalp was shaved and scrubbed with alcohol. A midline sagittal incision was made, and the skull was exposed. The bone suture junctions Bregma and midline (lambda) were identified, then the location for cannula placement was marked 1 mm posterior to Bregma and 1.5 mm lateral (left) of the midline. A hole was drilled through the skull at the marked location to receive the cannula. Then, three additional holes were drilled around the first hole: anterior, lateral and posterior to the first hole, respectively, and about 3-4 mm apart from the first hole. These three holes were drilled partway through the skull to accommodate three small screws used to secure the cannula. An L-shaped cannula was inserted through the first hole in the skull to the stereotaxically correct depth 3.6 mm below the surface of the skull. The skull surface was completely dried, and the cannula and the implantation site covered with dental cement. Once the surgical procedures were done, the rat was removed from the stereotaxic device and returned to its cage and allowed 5 to 7 days to recover from surgery.
Implantation of osmotic mini-pump. After 5 to 7 days of recovery, a subcutaneous pocket in the midscapular area of the back of each rat, next to the implanted cannula (caudally), was created under light anesthesia with halothane to house the osmotic mini-pump. The subcutaneous pocket was created by first making a small incision, inserting a hemostat into the incision, and then opening and closing the hemostat to make a short subcutaneous tunnel. […] The wound was closed with sutures and the rat was returned to its cage.
Rats were tested for analgesia using the tail-flick latency test twice during the study period. The tests were conducted 30 min after the morning dose on days 1 and 5. Maximum Possible Effect (MPE) was calculated using the following equation: (Post-drug latency—baseline latency)/(cut-off latency—baseline latency)×100%.

Data set [4] deals with T1, FLAG-MOR (mu opioid receptor) (Mus musculus, UniProt P42866).
T1 construct: expressed in transfected cells
In words: MOR endocytosis by antibody feeding and immunocytochemistry in HEK 293 cells. It counts as cell-based. The procedure: (§2) Cell culture and immunocytochemistry. Human Embryonic Kidney (HEK) 293 cells (American Type Culture Collection) were grown in DMEM (Gibco BRL) supplemented with 10% Fetal Bovine Serum (Hyclone). Mu opioid receptor and CRE-Luciferase (Promega) constructs were stably transfected using calcium phosphate co-precipitation, with single colonies chosen and propagated in the presence of selection-containing media. For immunocytochemistry, cells were grown on poly-lysine coated coverslips and incubated with 3.5 μg/ml M1 anti-FLAG and/or 3.5 μg/ml HA-11 antibody (Covance) for 30 minutes. Cells were then treated with agonist as specified, fixed in 4% formaldehyde in PBS, permeabilized in 0.1% Triton X-100 in blotto, and stained. Cells stained for only one receptor type were stained with Texas red-conjugated Donkey anti-Mouse antibody (Jackson Immunoresearch). Cells that were stained for both FLAG and HA tagged receptors simultaneously were first incubated with rabbit anti-IgG2b antibodies (Zymed) followed by staining with Texas red Donkey anti Mouse antibody (Jackson Immunoresearch) and FITC-conjugated Goat anti Mouse IgG1, antibody (Boehringer). Images were acquired using a custom-configured inverted microscope (Prairie Systems, Madison, Wis.) with a Zeiss 63× oil objective, or a Zeiss confocal with a 60× oil objective.
We next assessed whether the heterodimerization of MOR and D MOR could affect the trafficking of the receptors using immunocytochemical methods. […] Control cell lines that expressed only one of the receptors, either FLAG-MOR or HA-D MOR, were treated analogously. All cells were then permeabilized and stained with fluorescently conjugated secondary antibodies. In this way, only receptors that were initially on the cell surface were detected.
HEK 293 cells were generated that stably expressed both the FLAG-tagged MOR and an HA-tagged B2AR. The cells were incubated with antibodies to both epitope tags to label cell surface receptors, treated with various agonists or agonists combinations, then stained for both receptors. […] All treatments were for 30 minutes with 5 μM each agonist.

Another data set concerns the target T2, mu-opioid receptor (Rattus norvegicus, UniProt P33535).
T2 construct: from tissue; host or cells: brain sections of male Sprague-Dawley rats treated i.c.v
In words: MOR distribution in brain by immunohistochemistry after acute and chronic i.c.v. treatment. It counts as in vivo. The note with it: i.c.v. acute or chronic (twice a day, 5 days); morphine 50 nmoles, DAMGO 1 nmole.

Data set [5] addresses T3, HA-B2AR (beta-2 adrenergic receptor) (Homo sapiens, UniProt P07550).
T3 construct: expressed in transfected cells
In words: B2AR endocytosis in HEK 293 cells expressing FLAG-MOR and HA-B2AR. Conditions: 5 μM each agonist, 30 minutes. It counts as cell-based. The procedure: as §2, with “objective. […]” for “objective.”

A further data set addresses T4, MOR-G protein coupling (Rattus norvegicus, UniProt P33535).
T4 construct: from tissue; host or cells: brain sections of male Sprague-Dawley rats treated i.c.v
In words: [35S]-GTPγS binding autoradiography of brain sections (MOR-G protein coupling) after chronic treatment. The note with it: chronic DAMGO treatment as printed; brainstem P<0.001, thalamus P<0.05. It counts as in vivo.

The target in data set [6] is T5, MORs in the lamina II neurons of the spinal cord (Rattus norvegicus, UniProt P33535).
T5 construct: from tissue; host or cells: spinal cord (lamina II, dorsal horn) of male Sprague-Dawley rats dosed intrathecally
In words: Immunohistochemical staining of MORs in lamina II spinal cord neurons after IT drug. It counts as in vivo. The procedure: Immunohistochemistry. The rats were anesthetized with intramuscular ketamine hydrochloride (80 mg/kg) and xylazine hydrochloride (12 mg/kg) and perfused with 4% paraformaldehyde in 0.1 M phosphate buffer immediately following the tail-flick test at day 7 following pump implantation. The segment of spinal cord proximal to the tip of the catheter was dissected out, post-fixed overnight in the same fixative and then transferred to a 30% sucrose buffer solution. […] The sections were then washed and mounted on slides. MOR distribution was examined with a Zeiss confocal microscope using a 60× oil immersion objective. For quantification, slides from at least two different rats for each condition were stained by one researcher and encoded and vesicles were counted blind by a second individual from the middle section of at least 8 cells per condition. Following compilation of vesicle counts, the code was broken.
as §1
A very low dose of DAMGO was chosen to avoid confusion due to DAMGO-induced endocytosis.
To examine this possibility, we examined the distribution of the MORs in the spinal cord of the rats from the behavioral experiment.

The target of another data set is wild type MOR (Homo sapiens, UniProt P35372). Conditions: cited from earlier work.
In another data set the test system is cAMP pathway. In words: CRE-luciferase reporter assay of cAMP superactivation in MOR-expressing HEK293 cells. The note with it: chronic 14 hours.
[7] abbreviates: acute IT injection, 30 min after, DAMGO 0.3 nmoles, morphine 30 nmoles, p<0.001.
Where [8] appears, read: chronic i.c.v. infusion at 25 or 75 nmoles/hr for 7 days.
The mark [9] stands for this setting: HEK 293 cells expressing FLAG-MOR and HA-B2AR, 5 μM each agonist, 30 minutes.

The source of these data is patent US20040024005A1, “Methods and compositions for reducing the development of drug tolerance and/or physical dependence” (The Regents of the University of California, priority 2002, published 2004).

T1 sequence (P42866 whole entry): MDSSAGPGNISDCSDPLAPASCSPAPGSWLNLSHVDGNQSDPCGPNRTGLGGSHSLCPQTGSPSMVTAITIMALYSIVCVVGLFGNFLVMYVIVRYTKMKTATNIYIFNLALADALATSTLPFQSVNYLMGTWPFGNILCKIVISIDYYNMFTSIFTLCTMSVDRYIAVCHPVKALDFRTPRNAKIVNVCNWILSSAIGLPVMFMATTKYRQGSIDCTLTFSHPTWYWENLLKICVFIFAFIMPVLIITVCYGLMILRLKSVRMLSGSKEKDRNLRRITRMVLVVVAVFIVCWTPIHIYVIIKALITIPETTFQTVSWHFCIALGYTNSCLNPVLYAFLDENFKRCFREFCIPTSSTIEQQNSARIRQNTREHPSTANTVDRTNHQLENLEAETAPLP
T5 sequence (P33535 whole entry): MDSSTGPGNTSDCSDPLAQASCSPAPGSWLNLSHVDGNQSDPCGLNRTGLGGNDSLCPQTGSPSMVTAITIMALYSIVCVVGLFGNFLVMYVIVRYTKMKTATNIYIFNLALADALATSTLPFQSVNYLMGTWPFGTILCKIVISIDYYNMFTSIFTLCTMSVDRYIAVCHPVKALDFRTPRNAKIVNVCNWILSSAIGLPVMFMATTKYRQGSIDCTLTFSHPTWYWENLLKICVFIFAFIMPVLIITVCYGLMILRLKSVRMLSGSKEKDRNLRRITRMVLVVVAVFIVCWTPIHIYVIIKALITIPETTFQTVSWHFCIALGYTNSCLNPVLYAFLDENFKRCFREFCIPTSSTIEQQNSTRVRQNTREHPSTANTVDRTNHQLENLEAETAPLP
T3 sequence (P07550 whole entry, species assumed): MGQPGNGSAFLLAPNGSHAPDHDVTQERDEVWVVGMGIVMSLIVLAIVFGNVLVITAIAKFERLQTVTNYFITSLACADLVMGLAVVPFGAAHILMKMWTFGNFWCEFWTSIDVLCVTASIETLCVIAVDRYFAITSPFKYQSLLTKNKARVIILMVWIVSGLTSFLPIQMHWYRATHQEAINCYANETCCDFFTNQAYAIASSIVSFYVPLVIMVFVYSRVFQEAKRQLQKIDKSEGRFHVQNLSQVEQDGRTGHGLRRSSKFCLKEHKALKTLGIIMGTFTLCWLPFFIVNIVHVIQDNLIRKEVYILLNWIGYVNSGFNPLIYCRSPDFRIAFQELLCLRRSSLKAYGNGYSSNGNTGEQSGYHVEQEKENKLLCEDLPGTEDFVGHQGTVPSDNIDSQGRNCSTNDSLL
T2 sequence (P33535 whole entry): as the sequence (P33535 whole entry) above
T4 sequence (P33535 whole entry): as above
Sequence of wild type MOR (P35372 whole entry): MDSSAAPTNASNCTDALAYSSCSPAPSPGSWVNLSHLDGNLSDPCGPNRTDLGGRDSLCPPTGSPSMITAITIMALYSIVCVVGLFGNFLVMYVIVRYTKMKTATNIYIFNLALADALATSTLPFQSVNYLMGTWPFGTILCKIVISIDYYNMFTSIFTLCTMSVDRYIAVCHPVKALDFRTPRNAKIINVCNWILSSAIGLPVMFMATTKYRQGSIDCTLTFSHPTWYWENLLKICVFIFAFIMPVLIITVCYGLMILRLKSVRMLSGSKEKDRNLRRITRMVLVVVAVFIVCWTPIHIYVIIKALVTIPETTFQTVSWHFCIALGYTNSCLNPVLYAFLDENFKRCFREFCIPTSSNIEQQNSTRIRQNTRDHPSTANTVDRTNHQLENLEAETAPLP
Protocol for MOR-G protein coupling: The binding assay was carried out as follows:
Slides containing brain sections were pre-incubated in buffer (50 mM Tris, 3 mM MgCl2, 0.2 mM EGTA, 100 mM NaCl, pH 7.4) for 10 min at room temperature.
The slides were then pre-incubated in the same buffer containing 2 mM GDP for 10 min at room temperature.
The slides were incubated in the same buffer as in step 2, additionally containing 50 pM [^35S]GTPγS for 90 min at room temperature.
The slides were then rinsed twice for 2-5 min in ice-cold buffer (the same buffer as in step 1) and dipped in cold distilled water.
The slides were thoroughly dried overnight, placed in X-ray cassettes, and exposed to BioMax MS™ film with an intensifying screen for 72 hr.
After exposure, the films were developed and scanned. The regional neuroanatomy of the rat was determined with the atlas of Paxinos and Watson, and brain areas in autoradiograms were quantitated using NIH Image software. Percent stimulation was calculated from optical densities (OD) according to the following equation:
Percent stimulation=(stimulated OD−basal OD)/basal OD×100%.
Protocol for cAMP pathway: CRE-luciferase reporter expression assays. Cells were grown to confluency in 24 well plates. […] For chronic treatment experiments cells were given drug for 14 hours, rinsed 3 times in drug-free media to initiate a withdrawal phase, then given 2 μM forskolin for the 4 hour withdrawal phase, and luciferase activity measured. […] For all treatment conditions, cells were rinsed once in PBS immediately prior to luciferase measurement. 100 μl Cell Culture Lysis Reagent (Promega) was added to each well, a 20 μl cell lysate aliquot was transferred to an opaque 96 well plate, 100 μl substrate added per well using a Lucy 2 luminometer (Anthos), and light measurements collected. Data were exported to Microsoft Excel for compilation, and GraphPad Prism 3.0 for graphical display, non-linear regression curve fitting, and subsequent statistical analyses.
P<0.01, two-way ANOVA, Tukey's post test.
Protocol for mu-opioid receptor: For the acute treatment, animals were sacrificed 30 mins following the first injection. For the chronic treatment, drugs were given twice a day: morning and afternoon, in 5 μl volume for 5 days, and the animals were sacrificed 30 mins following the final injection. Rats were deeply anesthetized with halothane and perfused with 4% paraformaldehyde in 0.1 M phosphate buffer. The brains were dissected out and post-fixed overnight in the same fixative and then transferred to a 30% sucrose buffer. Coronal sections (30 um thick) were cut on cryostat at −18° C., preincubated in PBT solution (0.1 M phosphate buffer, 2% BSA, and 0.2% Triton X-100) for 30 min, blocked in 5% normal goat serum in PBT solution for another 30 min, and then incubated with a rabbit anti-mu opioid receptor antibody at 1:5000 and mouse and NeuN antibody (which recognizes the neuronal-specific protein NeuN) at 1:5000 overnight at 4° C. […] The sections were then washed and mounted onto slides. The mu-opioid receptors and NeuN were visualized using a Zeiss confocal microscope with a 60× oil immersion objective.

`CN1CC[C@]23c4c5ccc(O)c4O[C@H]2[C@@H](O)C=C[C@H]3[C@H]1C5` [morphine, (5α,6α)-7,8-didehydro-4,5-epoxy-17-methylmorphinan-3,6-diol]: in data set [1] (i.c.v. 25 nmoles/hr for 7 days), the “withdrawal behaviours after naloxone” value was “increases in shaking and chewing”. The “withdrawal behaviours after naloxone” value in [1] (i.c.v. 75 nmoles/hr for 7 days) was “increases in jumping, shaking, and chewing”. Moreover, the “weight loss after naloxone” value in data set [1] (i.c.v. 25 or 75 nmoles/hr for 7 days) is recorded as “dose-dependent weight loss”. Further, in [1], the “withdrawal symptoms after naloxone (jumping, shaking, chewing, weight loss)” value is “produced jumping, shaking, and chewing and weight loss”. The “time to development of tolerance” value in [2] (Y-shaped IT catheter, chronic morphine mini pump plus twice daily saline injections) was not above 4 days. Moreover, the “antinociception early in the experiment / day one” value in data set [2] (Y-shaped IT catheter, chronic morphine mini pump plus twice daily saline or DAMGO 0.01 nmoles) is “pronounced antinociception early in the experiment”. In addition, the “analgesia (tail flick latency)” value in data set [2] (setting [7]) is “produced significant analgesia”. Also, in data set [2] (chronic IT infusion at 2, 6, or 18 nmoles/hr, 7 days), the “loss of antinociception (tolerance)” value is “eventually lost completely over 7 days”. The “antinociceptive effect (tail flick latency)” value in [2] (chronic IT infusion at 2, 6, or 18 nmoles/hr, early days) is listed as “significant antinociceptive effect for the first few days”. In addition, in [3] (setting [8]), the “duration of significant antinociceptive effect” value is 3 to 4 days and the tolerance result is listed as “causes tolerance in a dose-dependent manner”. Further, the “reduction in antinociceptive effect (percent MPE) after 5-day treatment” value in [3] (i.c.v. 50 nmoles twice a day for 5 days, day 5 vs day 1) is 30-40%.
In the case of `CC(C)NCC(O)c1ccc(O)c(O)c1` (stereo not drawn) [isoproterenol], the MOR endocytosis entry in data set [4] (setting [9]) was “not MOR”.
On to `C[C@@H](NC(=O)[C@@H](N)Cc1ccc(O)cc1)C(=O)NCC(=O)N(C)[C@@H](Cc1ccccc1)C(=O)NCCO` [DAMGO], for which the “withdrawal symptoms after naloxone (jumping, shaking, chewing, weight loss)” value in data set [1] was “no jumping and less shaking, chewing, and weight loss”. Also, at mu-opioid receptor, the “promotes substantial MOR endocytosis in brain (striatum, globus pallidus, ventral tegumental area)” value was “does”. Moreover, the B2AR endocytosis result in data set [5] is “not B2AR”. The “MOR-G protein coupling in the brainstem and thalamus” value at MOR-G protein coupling is “reduction MOR-G protein coupling”. Also, the “analgesia (tail flick latency)” value is “produced no analgesia” in [2] (0.01 nmoles IT twice daily, saline from mini pump, 7 days); “no analgesic effect” in [2] (acute IT injection, 30 min after, 0.01 nmoles, p>0.05); “produced significant analgesia” in [2] (setting [7]). In addition, in data set [6] (acute IT, 0.01 nmoles alone), the “MOR endocytosis in lamina II neurons” value is listed as “nor detectable MOR endocytosis”. In data set [6] (acute IT, DAMGO 0.3 nmoles, equi-analgesic morphine 30 nmoles), the “MOR distribution / endocytosis in lamina II neurons” value is “pronounced receptor endocytosis”. The “distribution of MORs in spinal cord neurons” value in data set [6] (day 7 of chronic IT treatment, morphine mini pump and/or DAMGO 0.01 nmoles twice daily) is “indistinguishable from animals given only saline”. Further, in data set [3] (i.c.v. 1 nmole twice a day for 5 days, day 5 vs day 1), the “reduction in antinociception (percent MPE) after 5-day treatment” value is reported as “much smaller reduction in antinociception”. Also, the MOR endocytosis entry in data set [4] (setting [9]) was “promoted endocytosis of the MOR”; in [4] (HEK 293 cells expressing only MOR, 5 μM, 30 minutes (saturating dose)), “robust endocytosis of receptor”; in [4] (HEK 293 cells expressing only MOR, non-saturating DAMGO 100 nM alone) it was “significantly less receptor endocytosis”; on wild type MOR it was “promotes robust endocytosis of the MOR”. Further, the “superactivation of the cAMP pathway relative to untreated cells” value in the data set on cAMP pathway (10 nM alone) was “little superactivation”; in the data set on cAMP pathway (1 μM, 100 nM, 10 nM or 1 nM), “superactivation in a dose dependent manner”.
